By IC50 is commonly meant the midpoint of a concentration-inhibition curve.

The assay addresses T1, human M1 receptor (Homo sapiens, UniProt P11229).
T1 sequence (P11229 1-460): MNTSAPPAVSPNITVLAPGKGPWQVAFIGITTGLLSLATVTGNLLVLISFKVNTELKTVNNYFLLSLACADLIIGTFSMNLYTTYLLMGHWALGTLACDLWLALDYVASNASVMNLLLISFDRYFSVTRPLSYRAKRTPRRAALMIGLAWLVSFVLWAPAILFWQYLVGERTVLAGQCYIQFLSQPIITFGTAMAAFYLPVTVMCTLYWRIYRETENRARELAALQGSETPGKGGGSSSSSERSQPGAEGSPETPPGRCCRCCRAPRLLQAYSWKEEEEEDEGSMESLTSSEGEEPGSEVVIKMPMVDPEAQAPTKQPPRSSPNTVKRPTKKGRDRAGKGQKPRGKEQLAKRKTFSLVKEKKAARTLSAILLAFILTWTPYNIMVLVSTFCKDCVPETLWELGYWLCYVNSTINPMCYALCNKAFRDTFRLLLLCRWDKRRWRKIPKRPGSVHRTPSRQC
Put plainly: In vitro functional assay of muscarinic acetylcholine receptor activity (aequorin calcium flux, reversal of EC80 acetylcholine response). Conditions: CHO-K1 cells stably expressing human M1 receptor with aequorin; acetylcholine at EC80; calcium flux (luminescence); read-out: M1 IC50. It is filed as cell-based. The procedure: CHO-K1 cells stably expressing human M1 receptor with aequorin (Perkin Elmer) were grown in F12 media (Gibco) containing 10% FBS (ATCC), 0.4 mg/mL geneticin (Sigma-Aldrich) and 0.25 mg/mL Zeocin (Invitrogen). Cells were grown as per the manufacturer's protocol. For compound testing, cells were grown to confluency and detached gently with Accutase (Sigma-Aldrich) followed by centrifugation for 5 min at 150× g. Cells were then re-suspended in assay buffer (i.e. DMEM/F-12 HEPES without phenol red (Invitrogen) with 0.1% BSA (Sigma-Aldrich)) at a density of 5×10^6 cells/ml. Under sterile conditions, 5 μM coelenterazine (Invitrogen) was added to the cells, mixed, then incubated at room temperature protected from light, with gentle agitation, for 4 h.
Primary compound plates were prepared in 100% DMSO in opaque 96-well plates (VWR) and serially diluted in half log increments. Secondary compound plates were prepared at 3× concentration in assay buffer. Compounds were added to white, clear bottom tissue culture treated 96-well plates (Fisher Scientific). Coelenterazine-loaded cells were then added at 5×10^5 cells/well.
Compounds and cells were incubated at room temperature for 30 min in the dark. Acetylcholine at the EC80 concentration was added and calcium flux measured using a FlexStation 3 (Molecular Devices). Sigmoidal dose-response curves were generated by measuring luminescence over 40 sec and calculating the area under the curve. Dose response curves and IC50 values were generated using Prism (GraphPad). Compounds were tested at a final concentration range of 100 μM to […] in 0.1% DMSO.
For orientation: A change in cytosolic calcium serves as a functional read-out for many receptors and channels.
For the compound `N#Cc1ccc(N2C3CCC2CN(C(=O)COC(c2ccc(F)cc2)C(F)F)C3)nc1` (racemic) [Example 200, 6-(3-(2-(2,2-difluoro-1-(4-fluorophenyl)ethoxy)acetyl)-3,8-diazabicyclo[3.2.1]octan-8-yl)nicotinonitrile], the IC50 lay within 10 to 100 nM.

Turning to `COc1cnccc1C(F)(F)CCC(=O)N1CC2CCC(C1)N2c1ccc(C#N)cn1` [Example 140, 6-(3-(4,4-difluoro-4-(3-methoxypyridin-4-yl)butanoyl)-3,8-diazabicyclo[3.2.1]octan-8-yl)nicotinonitrile], the IC50 is below 10 nM.

As for `COc1cncc(C(NCC(=O)N2CC3CCC(C2)N3c2ccc(C#N)cn2)C(F)F)c1` (racemic) [Example 127, 6-(3-((2,2-difluoro-1-(5-methoxypyridin-3-yl)ethyl)glycyl)-3,8-diazabicyclo[3.2.1]octan-8-yl)nicotinonitrile], the IC50 was below 10 nM.

As for `COc1cc(F)cc(C2(NCC(=O)N3CC4CCC(C3)N4c3ccc(C#N)cn3)CC2)c1` [Example 110, 6-(3-((1-(3-fluoro-5-methoxyphenyl)cyclopropyl)glycyl)-3,8-diazabicyclo[3.2.1]octan-8-yl)nicotinonitrile], the IC50 is below 10 nM.

Take `CC(c1ccc(F)cc1)S(=O)(=O)CC(=O)N1CC2CCC(C1)N2c1ccc(C#N)cn1` (racemic) [Example 173, 6-(3-(2-((1-(4-fluorophenyl)ethyl)sulfonyl)acetyl)-3,8-diazabicyclo[3.2.1]octan-8-yl)nicotinonitrile]: the IC50 lay within 1000 to 10000 nM.

As for `CC(c1ccccc1)S(=O)(=O)CC(=O)N1CC2CCC(C1)N2c1ccc(C#N)cn1` (racemic) [Example 172, 6-(3-(2-((1-phenylethyl)sulfonyl)acetyl)-3,8-diazabicyclo[3.2.1]octan-8-yl)nicotinonitrile], the IC50 is above 1000 nM.

On to `N#Cc1ccc(N2C3CCC2CN(C(=O)/C=C/C(F)(F)c2ccc(F)cc2)C3)nc1` [Example 123, 6-(3-((E)-4,4-difluoro-4-(4-fluorophenyl)but-2-enoyl)-3,8-diazabicyclo[3.2.1]octan-8-yl)nicotinonitrile], for which the IC50 was 10 to 100 nM.

Turning to `COc1ncc(F)c(C2(OCC(=O)N3CC4CCC(C3)N4c3ccc(C#N)cn3)CCC2)c1F` [Example 272, 6-(3-(2-(1-(3,5-difluoro-2-methoxypyridin-4-yl)cyclobutoxy)acetyl)-3,8-diazabicyclo[3.2.1]octan-8-yl)nicotinonitrile], the IC50 was in the range of 10 to 100 nM.

Take `N#Cc1ccc(N2C3CCC2CN(C(=O)COC2(c4ccccc4Br)CC2)C3)nc1` [Example 181, 6-(3-(2-(1-(2-bromophenyl)cyclopropoxy)acetyl)-3,8-diazabicyclo[3.2.1]octan-8-yl)nicotinonitrile]: the IC50 fell in the range of 10 to 100 nM.

Take `COc1ccc(F)c([C@H](C)NCC(=O)N2CC3CCC(C2)N3c2ccc(C#N)cn2)c1` [Example 67, 6-(3-(((S)-1-(2-fluoro-5-methoxyphenyl)ethyl)glycyl)-3,8-diazabicyclo[3.2.1]octan-8-yl)nicotinonitrile]: the IC50 was below 10 nM.

As for `COc1cc(C(F)(F)CCCC(=O)N2CC3CCC(C2)N3c2ccc(C#N)cn2)ccn1` [Example 150, 6-(3-(5,5-difluoro-5-(2-methoxypyridin-4-yl)pentanoyl)-3,8-diazabicyclo[3.2.1]octan-8-yl)nicotinonitrile], the half-maximal inhibitory concentration (IC50) lay within 100 to 1000 nM.

As to `CCC(OCC(=O)N1CC2CCC(C1)N2c1ccc(C#N)cn1)c1cc(F)cc(Br)c1` (racemic) [Example 218, 6-(3-(2-(1-(3-bromo-5-fluorophenyl)propoxy)acetyl)-3,8-diazabicyclo[3.2.1]octan-8-yl)nicotinonitrile], the IC50 was below 10 nM.

For `CCC(OCC(=O)N1CC2CCC(C1)N2c1ccc(C#N)cn1)c1ccc(F)c(Br)c1` (racemic) [Example 216, 6-(3-(2-(1-(3-bromo-4-fluorophenyl)propoxy)acetyl)-3,8-diazabicyclo[3.2.1]octan-8-yl)nicotinonitrile], the IC50 was below 10 nM.

Consider `COc1cccc(C2(OCC(=O)N3CC4CCC(C3)N4c3ccc(C#N)cn3)CCC2)n1` [Example 253, 6-(3-(2-(1-(6-methoxypyridin-2-yl)cyclobutoxy)acetyl)-3,8-diazabicyclo[3.2.1]octan-8-yl)nicotinonitrile], for which the IC50 is below 10 nM.

As for `COc1cccc(C(CO)CCC(=O)N2CC3CCC(C2)N3c2ccc(C#N)cn2)c1` (racemic) [Example 317, 6-(3-(5-hydroxy-4-(3-methoxyphenyl)pentanoyl)-3,8-diazabicyclo[3.2.1]octan-8-yl)nicotinonitrile], the IC50 is below 10 nM.

As for `N#Cc1ccc(N2C3CCC2CN(C(=O)COC2(c4ccc(F)c(C#N)c4)CC2)C3)nc1` [Example 291, 6-(3-(2-(1-(3-cyano-4-fluorophenyl)cyclopropoxy)acetyl)-3,8-diazabicyclo[3.2.1]octan-8-yl)nicotinonitrile], the IC50 lay in the range of 100 to 1000 nM.

As for `N#Cc1ccc(N2C3CCC2CN(C(=O)COC2(c4cc(F)cc(C#N)c4)CC2)C3)nc1` [Example 292, 6-(3-(2-(1-(3-cyano-5-fluorophenyl)cyclopropoxy)acetyl)-3,8-diazabicyclo[3.2.1]octan-8-yl)nicotinonitrile], the IC50 lay within 100 to 1000 nM.

In the case of `N#Cc1ccc(N2C3CCC2CN(C(=O)CNC2(c4ccccc4F)CC2)C3)nc1` [Example 61, 6-(3-((1-(2-fluorophenyl)cyclopropyl)glycyl)-3,8-diazabicyclo[3.2.1]octan-8-yl)nicotinonitrile], the IC50 is 100 to 1000 nM.

`COc1cc(C2(CCC(=O)N3CC4CCC(C3)N4c3ccc(C#N)cn3)CCC2)ccn1` [Example 164, 6-(3-(3-(1-(2-methoxypyridin-4-yl)cyclobutyl)propanoyl)-3,8-diazabicyclo[3.2.1]octan-8-yl)nicotinonitrile]: the IC50 is below 10 nM.

With `COc1cc(C(F)(F)CCC(=O)N2CC3CCC(C2)N3c2ccnc(C#N)c2)ccn1` [Example 156, 4-(3-(4,4-difluoro-4-(2-methoxypyridin-4-yl)butanoyl)-3,8-diazabicyclo[3.2.1]octan-8-yl)picolinonitrile], the 50% inhibitory concentration (IC50) lay in the range of 100 to 1000 nM.

Consider `N#Cc1ccc(N2[C@@H]3C[C@H]2CN(C(=O)COC2(c4ccc(F)c(F)c4)CC2)C3)nc1` [Example 284, 6-(3-(2-(1-(3,4-difluorophenyl)cyclopropoxy)acetyl)-3,6-diazabicyclo[3.1.1]heptan-6-yl)nicotinonitrile], for which the IC50 was 1000 to 10000 nM.

Consider `COc1ccc(C2(NCC(=O)N3CC4CCC(C3)N4c3ccc(C#N)cn3)CC2)cc1F` [Example 108], for which the IC50 was 100 to 1000 nM.

Turning to `COc1ccc2c(c1)C(C)N(CC(=O)N1CC3CCC(C1)N3c1ccc(C#N)cn1)CC2` (racemic) [Example 120, 6-(3-(2-(7-methoxy-1-methyl-3,4-dihydroisoquinolin-2(1H)-yl)acetyl)-3,8-diazabicyclo[3.2.1]octan-8-yl)nicotinonitrile], the IC50 lay in the range of 1000 to 10000 nM.

With `COc1cc(C(F)(F)/C=C/C(=O)N2CC3CCC(C2)N3c2ccc(C#N)cn2)ccn1` [Example 139, 6-(3-((E)-4,4-difluoro-4-(2-methoxypyridin-4-yl)but-2-enoyl)-3,8-diazabicyclo[3.2.1]octan-8-yl)nicotinonitrile], the IC50 is below 10 nM.

On to `N#Cc1ccc(N2C3CCC2CN(C(=O)COC2(c4ccccc4C#N)CC2)C3)nc1` [Example 294, 6-(3-(2-(1-(2-cyanophenyl)cyclopropoxy)acetyl)-3,8-diazabicyclo[3.2.1]octan-8-yl)nicotinonitrile], for which the IC50 was 100 to 1000 nM.

(Values after US12565501B2, “Muscarinic acetylcholine M1 receptor antagonists” (Contineum Therapeutics, Inc., priority 2019, dated 2026).)
